According to US20150105252A1, “SUBSTITUTED PYRAZOLES AS HERBICIDES” (E I DU PONT DE NEMOURS AND COMPANY, priority 2013, published 2015):

Assays:
corn [1] = experiment: Test A preemergence; type: in vivo, Zea mays
Outline: (§1)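 Scoring was visual, on a scale where 100 means complete control and 0 means no effect, comparing treated with untreated plants around 10 days post-application. Compounds in surfactant-containing non-phytotoxic solvent were sprayed onto soil preemergence or onto one- to two-leaf seedlings (2–10 cm) postemergence.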

velvetleaf [2] = experiment: Test A preemergence; type: in vivo, Abutilon theophrasti
Outline: as §1

pigweed [3] = experiment: Test A postemergence; type: in vivo, Amaranthus retroflexus
Outline: as §1

corn [4] = experiment: Test A postemergence; type: in vivo, Zea mays
Outline: as §1

barnyardgrass [5] = experiment: Test A preemergence; type: in vivo, Echinochloa crus-galli
Outline: as §1

pigweed [6] = experiment: Test A preemergence; type: in vivo, Amaranthus retroflexus
Outline: as §1

wheat [7] = experiment: Test A preemergence; type: in vivo, Triticum aestivum; conditions: preemergence
Outline: as §1

ducksalad = experiment: Test B flood; type: in vivo, Heteranthera limosa; conditions: 250 g ai/ha, visual rating on 0 to 100 scale (0 no effect, 100 complete control), 13 to 15 days
Outline: (§2)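 At two leaves, seedlings received the test compound via the paddy water, pots having been flooded 3 cm over the soil surface and kept so. Greenhouse-held for 13 to 15 days, then judged by eye against controls on a scale running 0 (no effect) to 100 (complete control).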

crabgrass, large [8] = experiment: Test A postemergence; type: in vivo, Digitaria sanguinalis
Outline: as §1

barnyardgrass [9] = experiment: Test B flood; type: in vivo, Echinochloa crus-galli; conditions: 250 g ai/ha, visual rating on 0 to 100 scale (0 no effect, 100 complete control), 13 to 15 days
Procedure: (§3) Seeds selected from rice (Oryza sativa), sedge, umbrella (small-flower umbrella sedge Cyperus difformis), ducksalad (Heteranthera limosa), and barnyardgrass (Echinochloa crus-galli) were grown to the 2-leaf stage for testing. At time of treatment, test pots were flooded to 3 cm above the soil surface, treated by application of test compounds directly to the paddy water, and then maintained at that water depth for the duration of the test.
(§4) Treated plants and controls were maintained in a greenhouse for 13 to 15 days, after which time all species were compared to controls and visually evaluated. Plant response ratings, summarized in Table B, are based on a scale of 0 to 100 where 0 is no effect and 100 is complete control. A dash (-) response means no test result.

morningglory [10] = experiment: Test A postemergence; type: in vivo, Ipomoea spp.
Outline: as §1

foxtail, giant [11] = experiment: Test A preemergence; type: in vivo, Setaria faberii
Outline: as §1

crabgrass, large [12] = experiment: Test A preemergence; type: in vivo, Digitaria sanguinalis
Outline: as §1

rice = experiment: Test B flood; type: in vivo, Oryza sativa; conditions: 250 g ai/ha, visual rating on 0 to 100 scale (0 no effect, 100 complete control), 13 to 15 days
Outline: as §2

morningglory [13] = experiment: Test A preemergence; type: in vivo, Ipomoea spp.
Outline: as §1

wheat [14] = experiment: Test A postemergence; type: in vivo, Triticum aestivum
Outline: as §1

sedge, umbrella = experiment: Test B flood; type: in vivo, Cyperus difformis; conditions: 250 g ai/ha, visual rating on 0 to 100 scale (0 no effect, 100 complete control), 13 to 15 days
Procedure: as §3, §4

barnyardgrass [15] = experiment: Test A postemergence; type: in vivo, Echinochloa crus-galli; conditions: Postemergence
Outline: as §1

velvetleaf [16] = experiment: Test A postemergence; type: in vivo, Abutilon theophrasti
Outline: as §1

foxtail, giant [17] = experiment: Test A postemergence; type: in vivo, Setaria faberii
Outline: as §1

[18] = Preemergence, 500 g ai/ha, 0 to 100 scale, 0 no effect, 100 complete control
[19] = preemergence, 125 g ai/ha, visual injury, 0 to 100 scale, approx. 10 days
[20] = Postemergence, 500 g ai/ha, visual rating after approx. 10 days, 0 to 100 scale (0 no effect, 100 complete control)
[21] = postemergence, 125 g ai/ha, about 10 days, visual rating on 0 to 100 scale (0 no effect, 100 complete control)
[22] = 125 g ai/ha, visual injury, 0 to 100 scale, approx. 10 days
[23] = 500 g ai/ha, visual injury after approx. 10 days, 0 to 100 scale (0 no effect, 100 complete control)
[24] = 125 g ai/ha, 0 to 100 scale, 0 no effect, 100 complete control
[25] = 500 g ai/ha, visual rating after approx. 10 days, 0 to 100 scale (0 no effect, 100 complete control)
[26] = preemergence, 500 g ai/ha, visual injury after approx. 10 days, 0 to 100 scale (0 no effect, 100 complete control)

Row | SMILES | Corn plant response rating (corn [1]; [19]) | Velvetleaf plant response rating (velvetleaf [2]; [19]) | Pigweed plant response rating (pigweed [3]; [20]) | Pigweed plant response rating (pigweed [3]; [21]) | Corn plant response rating (corn [4]; [20]) | Corn plant response rating (corn [4]; [21]) | Barnyardgrass plant response rating (barnyardgrass [5]; [19]) | Pigweed plant response rating (pigweed [6]; [19]) | Wheat plant response rating (wheat [7]; [22]) | Wheat plant response rating (wheat [7]; [23]) | Plant response rating, Ducksalad (ducksalad) | Crabgrass, Large plant response rating (crabgrass, large [8]; [20]) | Crabgrass, Large plant response rating (crabgrass, large [8]; [21]) | Plant response rating, Barnyardgrass (barnyardgrass [9]) | Morningglory plant response rating (morningglory [10]; [20]) | Morningglory plant response rating (morningglory [10]; [21]) | Foxtail, Giant plant response rating (foxtail, giant [11]; [19]) | Crabgrass, Large plant response rating (crabgrass, large [12]; [19]) | Plant response rating, Rice (rice) | Morningglory plant response rating (morningglory [13]; [19]) | other results
1 | Cc1cc(C(=O)NC2CC2)nn1Oc1ccnc(C(F)(F)F)c1 [Compound 81] | 0 | 0 | 50 | 30 | 20 | 10 | 20 | 40 | 0 | 10 | 0 | 40 | 10 | 0 | 50 | 30 | 30 | 60 | 0 | 0 | Corn plant response rating (corn [1]; [18]): 0; Velvetleaf plant response rating (velvetleaf [2]; [18]): 60; Barnyardgrass plant response rating (barnyardgrass [5]; [18]): 70; Pigweed plant response rating (pigweed [6]; [18]): 90; Foxtail, Giant plant response rating (foxtail, giant [11]; [18]): 100; Crabgrass, Large plant response rating (crabgrass, large [12]; [18]): 100; Morningglory plant response rating (morningglory [13]; [18]): 60; Wheat plant response rating (wheat [14]; [20]): 0; Wheat plant response rating (wheat [14]; [21]): 0; Plant response rating, Sedge, Umbrella (sedge, umbrella): 0; Barnyardgrass plant response rating (barnyardgrass [15]; [24]): 0; Barnyardgrass plant response rating (barnyardgrass [15]; [25]): 20; Velvetleaf plant response rating (velvetleaf [16]; [20]): 30; Velvetleaf plant response rating (velvetleaf [16]; [21]): 20; Foxtail, Giant plant response rating (foxtail, giant [17]; [20]): 30; Foxtail, Giant plant response rating (foxtail, giant [17]; [21]): 10
2 | CCCNC(=O)c1cc(CC)n(Oc2ccnc(C(F)(F)F)c2)n1 [Compound 82] | 20 | 0 | 30 | 10 | 60 | 20 | 30 | 0 | 10 | 60 | 30 | 60 | 30 | 0 | 60 | 50 | 40 | 70 | 0 | 10 | Corn plant response rating (corn [1]; [18]): 60; Velvetleaf plant response rating (velvetleaf [2]; [18]): 20; Barnyardgrass plant response rating (barnyardgrass [5]; [18]): 80; Pigweed plant response rating (pigweed [6]; [18]): 60; Foxtail, Giant plant response rating (foxtail, giant [11]; [18]): 100; Crabgrass, Large plant response rating (crabgrass, large [12]; [18]): 100; Morningglory plant response rating (morningglory [13]; [18]): 50; Wheat plant response rating (wheat [14]; [20]): 50; Wheat plant response rating (wheat [14]; [21]): 0; Plant response rating, Sedge, Umbrella (sedge, umbrella): 75; Barnyardgrass plant response rating (barnyardgrass [15]; [24]): 20; Barnyardgrass plant response rating (barnyardgrass [15]; [25]): 50; Velvetleaf plant response rating (velvetleaf [16]; [20]): 20; Velvetleaf plant response rating (velvetleaf [16]; [21]): 10; Foxtail, Giant plant response rating (foxtail, giant [17]; [20]): 60; Foxtail, Giant plant response rating (foxtail, giant [17]; [21]): 10
3 | CCCCNC(=O)c1cc(C)n(Oc2ccnc(C(F)(F)F)c2)n1 [Compound 85] | 0 | 0 | 10 | 0 | 10 | 0 | 0 | 0 | 0 | 0 | 0 | 20 | 10 | 0 | 40 | 10 | 0 | 20 | 0 | 0 | Corn plant response rating (corn [1]; [18]): 0; Velvetleaf plant response rating (velvetleaf [2]; [18]): 0; Barnyardgrass plant response rating (barnyardgrass [5]; [18]): 30; Pigweed plant response rating (pigweed [6]; [18]): 0; Foxtail, Giant plant response rating (foxtail, giant [11]; [18]): 50; Crabgrass, Large plant response rating (crabgrass, large [12]; [18]): 80; Morningglory plant response rating (morningglory [13]; [18]): 10; Wheat plant response rating (wheat [14]; [20]): 0; Wheat plant response rating (wheat [14]; [21]): 0; Plant response rating, Sedge, Umbrella (sedge, umbrella): 0; Barnyardgrass plant response rating (barnyardgrass [15]; [24]): 0; Barnyardgrass plant response rating (barnyardgrass [15]; [25]): 10; Velvetleaf plant response rating (velvetleaf [16]; [20]): 10; Velvetleaf plant response rating (velvetleaf [16]; [21]): 0; Foxtail, Giant plant response rating (foxtail, giant [17]; [20]): 20; Foxtail, Giant plant response rating (foxtail, giant [17]; [21]): 0
4 | CCCNC(=O)c1cc(CC)n(Cc2cccc(C(F)(F)F)n2)n1 [Compound 88] | 0 | 0 | 10 | 0 | 10 | 0 | 0 | 0 | 0 | 0 | 0 | 10 | 0 | 0 | 10 | 10 | 0 | 0 | 0 | 0 | Corn plant response rating (corn [1]; [26]): 0; Velvetleaf plant response rating (velvetleaf [2]; [26]): 0; Barnyardgrass plant response rating (barnyardgrass [5]; [26]): 0; Pigweed plant response rating (pigweed [6]; [26]): 0; Foxtail, Giant plant response rating (foxtail, giant [11]; [26]): 0; Crabgrass, Large plant response rating (crabgrass, large [12]; [26]): 30; Morningglory plant response rating (morningglory [13]; [26]): 10; Wheat plant response rating (wheat [14]; [20]): 0; Wheat plant response rating (wheat [14]; [21]): 0; Plant response rating, Sedge, Umbrella (sedge, umbrella): 0; Barnyardgrass plant response rating (barnyardgrass [15]; [24]): 0; Barnyardgrass plant response rating (barnyardgrass [15]; [25]): 0; Velvetleaf plant response rating (velvetleaf [16]; [20]): 10; Velvetleaf plant response rating (velvetleaf [16]; [21]): 0; Foxtail, Giant plant response rating (foxtail, giant [17]; [20]): 0; Foxtail, Giant plant response rating (foxtail, giant [17]; [21]): 0
5 | CCc1cc(C(=O)Nc2ccc(F)cc2)nn1Oc1ccnc(C(F)(F)F)c1 [Compound 89] | 0 | 0 | 0 | 0 | 20 | 0 | 0 | 0 | 0 | 0 | 0 | 0 | 0 | 0 | 0 | 0 | 0 | 0 | 0 | 0 | Corn plant response rating (corn [1]; [26]): 0; Velvetleaf plant response rating (velvetleaf [2]; [26]): 0; Barnyardgrass plant response rating (barnyardgrass [5]; [26]): 0; Pigweed plant response rating (pigweed [6]; [26]): 0; Foxtail, Giant plant response rating (foxtail, giant [11]; [26]): 10; Crabgrass, Large plant response rating (crabgrass, large [12]; [26]): 10; Morningglory plant response rating (morningglory [13]; [26]): 0; Wheat plant response rating (wheat [14]; [20]): 0; Wheat plant response rating (wheat [14]; [21]): 0; Plant response rating, Sedge, Umbrella (sedge, umbrella): 0; Barnyardgrass plant response rating (barnyardgrass [15]; [24]): 0; Barnyardgrass plant response rating (barnyardgrass [15]; [25]): 0; Velvetleaf plant response rating (velvetleaf [16]; [20]): 0; Velvetleaf plant response rating (velvetleaf [16]; [21]): 0; Foxtail, Giant plant response rating (foxtail, giant [17]; [20]): 0; Foxtail, Giant plant response rating (foxtail, giant [17]; [21]): 0
